Columns and labels:
[1] = system: Salmonella typhimurium strain TA102; test: Anti-mutagenicity (Ames), TA102; format: cell-based; details: MMS mutagen alone, 0.5 μl/plate
Protocol: (§1) An antimutagenicity assay was conducted according to the method developed by Ames et al. using Salmonella typhimurium strains TA 102 and TA 100 and mammalian microsomal enzymes. Beta-naphthoflavone and phenobarbital-induced rat liver supernatant (9000×g S-9 fraction) was used as the enzyme source for metabolic activation. The night before the experiment, certified bacterial solution (assessed for its biological characteristics and donated by Professor Ames) was inoculated into petri dishes. The petri dishes were then incubated for 15 hours at 37° C. From each petri dish, 0.1 ml of the bacterial solution was removed and added to sterile test tubes. To these test tubes, 0.1 ml of different concentrations of coumarin retinoids and 0.5 ml of either S-9 mixed solution or phosphate buffer were then added. The final solution for each test tube was incubated in a water bath at 37° C. for 20 minutes before adding 2 ml of agar solution. After thorough mixing, the solution was transferred into petri dishes and incubated once again at 37° C. for 48 hours. After incubation, the number of colonies in each petri dish were counted. The revertant numbers of the bacteria in control and treated groups were compared and the inhibition rate was calculated.

[2] = system: Salmonella typhimurium strain TA100; test: Anti-mutagenicity (Ames), TA100; format: cell-based; details: MMS mutagen alone, 0.5 μl/plate
Protocol: as §1

[3] = system: Ornithine decarboxylase (ODC); test: Croton oil induced ornithine decarboxylase (ODC) activity in mouse epidermis; format: in vivo; details: ICR mice, single dose pretreatment; FIG. 1, n=3
Protocol: ICR mice (6-8 weeks old) were pretreated with a single dose of coumarin retinoid. On the third day, the animals received a topical application of 0.2 ml of 1% croton oil in acetone. All animals were sacrificed five hours after the croton oil treatment and the epidermis was separated by a brief heat treatment at 52° C. for 30 seconds and minced in a blender. The cell suspension and broth were separated by a centrifugation at 30,000×g for 30 seconds and the supernatant was obtained. Ornithine decarboxylase (ODC) enzyme activity was determined by measuring the release of CO2 from L-(^14 C)-ornithine and expressed as nmole CO2 /30 min/mg protein and the results for coumarin retinoid I-10 and I-6 are shown in FIG. 1. […] ODC activity is a critical parameter for monitoring cancer chemoprevention or promotion.

[4] = system: Human promyelocytic leukemia HL-60 cells; test: Cell differentiation of HL-60 cells, nitroblue tetrazolium (NBT) reduction / morphology; format: cell-based
Protocol: Human promyelocytic leukemia HL-60 cells were cultured in RPMI-1640 medium supplemented by 10% heat-inactivated calf serum and 100 U/ml of penicillin plus 100 μg/ml of streptomycin. The flasks containing cells and medium were incubated in an incubator with 5% CO2 at 37° C. Log phase cells were seeded into the medium at a concentration of 1.2×10^5to 1.4×10^5 cells per ml and cultured in flasks containing 5 ml of medium. Each group consisted of three flasks. Different concentrations of coumarin-retinoids were added. At intervals following the addition of coumarin-retinoids to the cultures, a small portion of cells was removed and live cells were counted under a light microscope using a dye-exclusionmethod with trypan blue. Cell differentiation was judged in terms of morphology and nitroblue tetrazolium (NBT) reduction.
For a determination of NBT reducing activity, a portion of the coumarin-retinoid-treated cells was removed at intervals following treatment and centrifuged. After centrifugation, 0.5 ml of 0.1% NBT (containing 100 ng TPA) was added to each tube. The contents of the test tubes were then incubated for 1 hour at 37° C. Cell smears were prepared from the cell sediment and stained using the Wright-Giemsa technique. For each smear prepared, 200 cells were isolated for examination under a light microscope with an oil immersion lens. Cells stained with blue-black granules were considered NBT-positive cells. The 50% differentiation or effective concentration (ED50 or EC50) is shown in terms of molar (M) concentration of the […] tested.
For a determination of cell morphology, a cell smear was prepared at intervals following treatment of cells for each coumarin-retinoid concentration group using the Wright-Giemsa stain technique. Stained cells were counted and classified under a light microscope with an oil immersion lens. After treatment with coumarin-retinoids, the morphological development of HL-60 cells proceeded toward mature granulocytes. This development was manifested by decreased cell volume; a lower nuclei to cytoplasm ratio; smaller or missing nuclei; concentration of chromatin; and the appearance of a certain proportion of intermediate and late granuloblasts (progranulocytes), elongated rod granulocytes, and granulocytes with branched nuclei.
The protocols of Examples 14 and 21 were used, for the NBT and MTT assays, respectively.

[5] = system: bone abnormalities in mouse fetus; test: Bone abnormalities in mouse fetus; format: in vivo
Protocol: (§2) Female mice were examined by vaginal smear the morning after being caged with male mice, and if sperm or a vaginal plug was discovered, then the mice were determined to be pregnant. The retinoids were administered at the dosage indicated starting on the seventh day of pregnancy and continued once a day for the next ten days. On the 20th day after the female mice were determined to be pregnant, they were sacrificed by cervical dislocation. Both sides of the uterus were checked and the number of living embryos, dead embryos, and absorbed embryos were counted. The living embryos were further examined for bone abnormalities.
After the embryos became transparent, they were dissected and their skeletons were checked by observation under a microscope.

[6] = system: croton oil induced ear edema in mice; test: Croton oil induced ear edema in mice; format: in vivo
Protocol: ICR mice (body weight 18-20 grams) were used. Each group consisted of 10 mice. After three dosage treatments, the left ears of the mice in both the treated group and the control group were painted with 2% croton oil in 0.05 ml ether. All the mice were sacrificed six hours later and the ears of both sides were punched by a corneal knife and weighed, the difference of the ear weight of both sides for each mouse was calculated. The t- Student test was used for statistical calculation. Croton oil induced ear edema is a classical assay for evaluation of cancer promotion.

[7] = system: fetus absorption in mice; test: Effect on fetus absorption in mice; format: in vivo
Protocol: as §2

[8] = system: chondrosarcoma; test: Growth of chondrosarcoma in rats; format: in vivo; details: for Body Weight final: in g (unit assumed)
Text: Transplantable chondrosarcomas obtained from Dr. Trown, Hoffman--La Roche Institute of Molecular Biology and Wistar rats obtained from the Breeding Center of Experimental Animals, Chinese Academy of Medical Sciences were used. According to the routine transplantation protocol as described in Cancer Treatment Reports 60(11):1647-1653 (1976) where the small pieces of chondrosarcoma tumor were implanted subcutaneously in the right inguinal region of rats using a trocar. Tumor-bearing rats were randomized to a control group and a treated group. Each group consisted of ten rats. […] Sixty days after transplantation, the rats were sacrificed and the tumor weight was determined. The inhibition rate was calculated according to the following formula: [formula]

[9] = system: human acute myeloid leukemia (AML), neuroblastoma, teratocarcinoma, melanoma, and rat rhabdomyosarcoma cells; details: Smith et al. 1992; cited from earlier work
[10] = system: lipid peroxidation of rat liver microsome; test: Inhibition of Fe+2/Cys induced lipid peroxidation of rat liver microsome; format: biochemical
Protocol: Lipid peroxidation was induced by adding 1 mM FeSO4 and 10 mM cysteine to the microsome fraction of rat liver with the incubations being carried out at 37° C. for 30 minutes in a reaction mixture containing 10 mM phosphate buffer (pH 7.4). The reaction was terminated by the addition of 0.3 ml of 20% trichloroacetic acid solution. Thiobarbituric acid was then added and the mixture was boiled for 10 minutes. After cooling the test tubes under running tap water, the optical density at 532 nm was measured. Lipid peroxidation in both the treated groups and the control group was expressed in nmol MDA/mg protein. The percentage inhibition indicates the anti-oxidation properties of the coumarin retinoids tested.

[11] = 10 mg/kg once a day from day 7 of pregnancy

## COS(C)(=O)=O [MMS]
[1]
  his+ -revertants/per plate, TA102: 1760 ± 288.4 revertants/per plate
[2]
  his+ -revertants/per plate, TA100: 1083.7 ± 99.3 revertants/per plate

## CC(=O)c1cc2c(OC(=O)/C=C(C)/C=C/C=C(C)/C=C/C3=C(C)CCCC3(C)C)cc(OC(=O)/C=C(C)/C=C/C=C(C)/C=C/C3=C(C)CCCC3(C)C)cc2oc1=O [Compound I-10]
[3]
  inhibition of croton oil induced ODC activity: significantly inhibited the ODC activity induced by croton oil
[4]; 6.4 × 10^-6 M
  NBT (+) %: 99%
[4]; 6.4 × 10^-7 M
  NBT (+) %: 96%
[4]; 6.4 × 10^-8 M
  NBT (+) %: 82%
[4]; 6.4 × 10^-9 M
  NBT (+) %: 33%
[4]; 6.4 × 10^-10 M
  NBT (+) %: 10%
[5]; 20 mg/kg
  Delayed Calcification, Occipital delay/fetus number: 22/66
  Delayed Calcification, Sternum delay/fetus number: 14/66
[5]; 40 mg/kg
  Delayed Calcification, Occipital delay/fetus number: 15/81
  Delayed Calcification, Sternum delay/fetus number: 21/81
[6]; 50 mg/kg
  Ear Edema (x ± SD): 14.2 ± 2.3 mg
  IR (%): 14%
[6]; 100 mg/kg
  Ear Edema (x ± SD): 11.3 ± 3.0 mg
  IR (%): 32%
[7]; 20 mg/kg once a day from day 7 of pregnancy
  Fetus Absorption, absorbed number/implanted number: 0/104
[7]; 40 mg/kg once a day from day 7 of pregnancy
  Fetus Absorption, absorbed number/implanted number: 0/107
[8]; 5 mg/kg P.O. (Table 13)
  Inhibition rate (%): 14.8%
  Tumor Weight: 12.1 grams
[8]; 5 mg/kg P.O., initial 10 (Table 13)
  Animals final: 10
[8]; 5 mg/kg P.O., initial 97.8 (Table 13)
  Body Weight final: 258.4
[8]; 10 mg/kg P.O.
  Tumor Weight: 12.8 grams
[8]; 10 mg/kg P.O., initial 10
  Animals final: 9
[8]; 10 mg/kg P.O., initial 98.2
  Body Weight final: 248.0
[8]; 20 mg/kg P.O.
  Tumor Weight: 8.2 grams
[8]; 20 mg/kg P.O., initial 10
  Animals final: 9
[8]; 20 mg/kg P.O., initial 97.4
  Body Weight final: 253.1

## CC1=C(/C=C/C(C)=C/C=C/C(C)=C/C(=O)O)C(C)(C)CCC1 [All Trans RA, all-trans-retinoic acid, reference compound]
[5]; 101 mg/kg (so in the source)
  Delayed Calcification, Occipital delay/fetus number: 6/16
  Delayed Calcification, Sternum delay/fetus number: 16/16
[7]; [11]
  Fetus Absorption (%): 73.7%
  Fetus Absorption, absorbed number/implanted number: 73/99
[7]; 15 mg/kg, implanted number 186, 15 pregnant mice
  Absorbed Number: 111
[9]
  induction of cell differentiation: induces cell differentiation

## CC(=O)c1cc2ccc(OC(=O)/C=C(C)/C=C/C=C(C)/C=C/C3=C(C)CCCC3(C)C)c(C(=O)O)c2oc1=O [Compound I-5]
[4]; 10^-4 M
  NBT (+) %: 69%
[4]; 10^-5 M
  NBT (+) %: 89%
[4]; 10^-7 M
  NBT (+) %: 41%
[10]; 1 μM
  Inhibition (%) of lipid peroxidation: 7.3%
[10]; 10 μM
  Inhibition (%) of lipid peroxidation: 16.6%
[10]; 10 μM, n = 3, p < 0.05
  Lipid Peroxidation: 1.95 ± 0.18 μM MDA/mg protein
[10]; 100 μM
  Inhibition (%) of lipid peroxidation: 36.6%
[10]; 100 μM, n = 3, p < 0.01
  Lipid Peroxidation: 1.43 ± 0.16 μM MDA/mg protein

## CC(=O)c1cc2cc(Cl)c(OC(=O)/C=C(C)/C=C/C=C(C)/C=C/C3=C(C)CCCC3(C)C)cc2oc1=O [Compound I-6]
[3]
  inhibition of croton oil induced ODC activity: significantly inhibited the ODC activity induced by croton oil
[4]; 10^-4 M
  NBT (+) %: 96%
[4]; 10^-5 M
  NBT (+) %: 81%
[4]; 10^-6 M
  NBT (+) %: 78%
[4]; 10^-7 M
  NBT (+) %: 31%
[4]; 10^-8 M
  NBT (+) %: 2%
[10]; 20 μM
  Inhibition (%) of lipid peroxidation: 9.6%
[10]; 200 μM
  Inhibition (%) of lipid peroxidation: 13.5%
[10]; 200 μM, n = 3, p < 0.05
  Lipid Peroxidation: 2.03 ± 0.16 μM MDA/mg protein
[6]; 50 mg/kg
  Ear Edema (x ± SD): 13.4 ± 3.1 mg
  IR (%): 19%
[6]; 100 mg/kg
  Ear Edema (x ± SD): 15.1 ± 2.7 mg
  IR (%): 9%

Reference: patent US5968940A, “Retinoids and methods of use of same” (priority 1996, dated 1999)
